Source: US9248584B2, “High-temperature spray drying process and apparatus” (Bend Research, Inc., priority 2010, dated 2016)

What was measured:
[1] = Room temperature solubility in methanol; assay type: physicochemical; settings: room temperature (20° C. to 30° C.)
[2] = Log P value; assay type: physicochemical

- solubility in methanol [1]: 0.3 wt %
- logP [2]: 3.7
SMILES: CCC(=O)O[C@]1(C(=O)SCF)[C@H](C)C[C@H]2[C@@H]3C[C@H](F)C4=CC(=O)C=C[C@]4(C)[C@@]3(F)[C@@H](O)C[C@@]21C [Active Agent 1, S-(fluoromethyl) 6α,9-difluoro-11β,17-dihydroxy-16α-methyl-3-oxoandrosta-1,4-diene-17β-carbothioate, 17-propionate]
